Data from patent US8592421B2, “Cyclic bioisosters of purine system derivatives and a pharmaceutical composition based thereon” (priority 2003, dated 2013).

Columns and labels:
thrombocytes [1] = assay: ADP-induced aggregation of thrombocytes in vitro (Born method, plasma enriched with thrombocytes); assay type: cell-based, rabbit; settings: 3-minute incubation, ADP 10^−5 M
[2] = Chronic toxicity of suppositories: indexes of peripheral blood; assay type: in vivo, rats; parameters: Thrombocytes: unit not given here
thrombocytes [3] = assay: ADP-induced aggregation of thrombocytes after intravenous administration (in vivo); parameters: species or system rabbit
Protocol: The experiments were carried out on male rabbits of the “Chinchilla” breed having a mass of 2.7±0.3 kg. 18-24 hours prior to the experiment they were deprived of feed while preserving free access to water.
To obtain plasma enriched with thrombocytes, blood was taken from a cut of a marginal vein of the rabbit ear, the sample was stabilized with 3.8% of sodium citrate solution in a ratio of 9:1 and centrifuged at 200 g (1000 rev/min) for 10 minutes. The top supernatant layer enriched with thrombocytes was transferred by an automatic dropper into a silicone test tube and kept at 37° C. The plasma enriched with thrombocytes contained, on the average, […]. If this content exceeded the specified 3×10^8 blood platelets in 1 liter, this sample was diluted to the necessary concentration with plasma deprived of thrombocytes, which was obtained by centrifuging blood at 650 g during 10 minutes.
The measurements of the optical density of the samples were made on two-channel aggregometer of the “Chronolog” Company (USA). A flask containing 490 mkl of plasma rich with thrombocytes was placed in a device, into which a magnetic agitator covered with Teflon was lowered. The index of maximum amplitude of aggregation (MA) in percent of a fall of the plasma optical density under effect of the aggregation inductor was recorded. The control index MA of plasma was compared with the MA of plasma incubated for 3 minutes with different concentrations of the compounds: from 10^−3 to 10^−7 in vitro experiments or with plasma obtained 15, 30, 60 and 120 minutes after intravenous administration of different doses of the compounds in vivo experiments.
The process of aggregation of thrombocytes was recorded with the help of a computer; on the monitor screen the there were depicted curves reflecting changes of the optical density of the plasma enriched which was taken as a standard 100% compared to the optical density of the non-thrombocyte plasma taken for 0% content of thrombocytes.
The antiaggregative capability of compounds 2, 15, 21, 37, according to the invention was tested in experiments in vivo. Introduced to the test animals intravenously were an aggregation inductor ADP at a concentration of 10^−5 M was and then the compounds according to the invention. The doses of the compounds were in a range from 15 to 60 mg/kg.
For leveling the different effects of the compounds in different days due the ambient temperature, humidity and other parameters, 2 animals of each series were taken for experiments every day. Under “series” there is understood a group of 6 animals used for studying one of the doses of the compounds.
The blood for obtaining plasma enriched with thrombocytes was taken from marginal vein of the rabbit ear: in the control group—directly before introducing the tested compounds; in investigated groups—15 minutes after introducing these compounds and then after 30, 60, 120 minutes and so on up to the moment when the effect of suppression of aggregation disappeared.
The quantity of thrombocytes was counted before the experiment and at the end thereof in each plasma sample.

[4] = male rats, suppositories rectally, 50 mg/kg, 1 month/2 months (one value given), control 0
[5] = male rats, suppositories rectally, 500 mg/kg, 1 month/2 months (one value given), control 0
[6] = 15.0 mg/kg intravenously, after 15 minutes, control 50.1 ± 1.7
[7] = 15.0 mg/kg intravenously, after 30 minutes, control 50.1 ± 1.7
[8] = 15.0 mg/kg intravenously, after 60 minutes, control 50.1 ± 1.7
[9] = 15.0 mg/kg intravenously, after 120 minutes, control 50.1 ± 1.7
[10] = 30.0 mg/kg intravenously, after 15 minutes, control 61.0 ± 1.3
[11] = 30.0 mg/kg intravenously, after 30 minutes, control 61.0 ± 1.3
[12] = 30.0 mg/kg intravenously, after 60 minutes, control 61.0 ± 1.3
[13] = 30.0 mg/kg intravenously, after 120 minutes, control 61.0 ± 1.3
[14] = 60.0 mg/kg intravenously, after 15 minutes, control 48.6 ± 1.3
[15] = 60.0 mg/kg intravenously, after 30 minutes, control 48.6 ± 1.3
[16] = 60.0 mg/kg intravenously, after 60 minutes, control 48.6 ± 1.3
[17] = 60.0 mg/kg intravenously, after 120 minutes, control 48.6 ± 1.3

O=c1[nH][nH]c(=O)c2c(Br)ncnc12.[K] [Compound 37, potassium salt of 4-bromine-pyrimido[4,5-D]-6H-pyridazine-5,8-dione]
MA - fall of optical density of plasma, % to the standard (thrombocytes [1]; 10^−3 M, control 60.8 ± 3.4): 46.9 ± 2.7 %
MA - fall of optical density of plasma, % to the standard (thrombocytes [1]; 10^−4 M, control 60.0 ± 2.1): 47.1 ± 2.0 %
MA - fall of optical density of plasma, % to the standard (thrombocytes [1]; 10^−5 M, control 52.5 ± 2.1): 40.6 ± 1.7 %
MA - drop of optical density, % (thrombocytes [1]; 10^−6 M, control 52.8 ± 1.8): 48.1 ± 2.9%
MA - drop of optical density, % (thrombocytes [1]; 10^−7 M, control 51.5 ± 2.1): 50.1 ± 1.0%
Basophiles [2, 4]: 0%
Juveniles [2, 4]: 0%
Stab neutrophil ([2]; male rats, suppositories rectally, 50 mg/kg, 1 month, control 0.8 ± 0.4): 1.3 ± 0.5%
REE ([2]; male rats, suppositories rectally, 50 mg/kg, 1 month, control 2.2 ± 0.4): 1.8 ± 0.3 mm/h
Reticulocytes ([2]; male rats, suppositories rectally, 50 mg/kg, 1 month, control 2.8%0.3): 2.6 ± 0.1%
Eosinophiles ([2]; male rats, suppositories rectally, 50 mg/kg, 1 month, control 4.0 + 0.3): 3.8 ± 0.8%
Erythrocytes ([2]; male rats, suppositories rectally, 50 mg/kg, 1 month, control 5.6 ± 0.1): 5.6 ± 0.2 mln/mm^3
Hemoglobin ([2]; male rats, suppositories rectally, 50 mg/kg, 1 month, control 10.5 ± 0.2): 10.5 ± 0.1 mmol/L
Leukocyte ([2]; male rats, suppositories rectally, 50 mg/kg, 1 month, control 17.4 ± 1.3): 14.9 ± 1.5 thousand/mm^3
Haematocrite ([2]; male rats, suppositories rectally, 50 mg/kg, 1 month, control 45.9 ± 1.7): 47.8 ± 1.4%
Average volume of erythrocytes ([2]; male rats, suppositories rectally, 50 mg/kg, 1 month, control 81.4 ± 1.7): 83.9 ± 1.7 Mkm^3
Coagulation, time ([2]; male rats, suppositories rectally, 50 mg/kg, 1 month, control 152 ± 10.2): 151 ± 13 s
Thrombocytes ([2]; male rats, suppositories rectally, 50 mg/kg, 1 month, control 707 ± 23): 675 ± 22
REE ([2]; male rats, suppositories rectally, 50 mg/kg, 2 months, control 1.4 ± 0.2): 1.6 ± 0.3 mm/h
Stab neutrophil ([2]; male rats, suppositories rectally, 50 mg/kg, 2 months, control 2.4 ± 0.4): 1.9 ± 0.4%
Reticulocytes ([2]; male rats, suppositories rectally, 50 mg/kg, 2 months, control 2.9 ± 0.2): 3.1 ± 0.1%
Eosinophiles ([2]; male rats, suppositories rectally, 50 mg/kg, 2 months, control 4.4 + 1.2): 4.2 ± 0.3%
Erythrocytes ([2]; male rats, suppositories rectally, 50 mg/kg, 2 months, control 6.1 ± 0.1): 6.2 ± 0.1 mln/mm^3
Hemoglobin ([2]; male rats, suppositories rectally, 50 mg/kg, 2 months, control 11.4 ± 0.2): 11.0 ± 0.1 mmol/L
Leukocyte ([2]; male rats, suppositories rectally, 50 mg/kg, 2 months, control 19.1 ± 1.9): 16.7 ± 1.2 thousand/mm^3
Haematocrite ([2]; male rats, suppositories rectally, 50 mg/kg, 2 months, control 45.9 ± 1.8): 47.5 ± 1.2%
Average volume of erythrocytes ([2]; male rats, suppositories rectally, 50 mg/kg, 2 months, control 74.6 + 1.9): 78.5 ± 1.4 Mkm^3
Coagulation, time ([2]; male rats, suppositories rectally, 50 mg/kg, 2 months, control 316 ± 8): 319 ± 12 s
Thrombocytes ([2]; male rats, suppositories rectally, 50 mg/kg, 2 months, control 593 ± 14): 609 ± 18
Basophiles [2, 5]: 0%
Juveniles [2, 5]: 0%
Stab neutrophil ([2]; male rats, suppositories rectally, 500 mg/kg, 1 month, control 0.8 ± 0.4): 0.9 ± 0.4%
REE ([2]; male rats, suppositories rectally, 500 mg/kg, 1 month, control 2.2 ± 0.4): 2.2 ± 0.3 mm/h
Reticulocytes ([2]; male rats, suppositories rectally, 500 mg/kg, 1 month, control 2.8%0.3): 3.0 ± 0.2%
Eosinophiles ([2]; male rats, suppositories rectally, 500 mg/kg, 1 month, control 4.0 + 0.3): 3.5 ± 1.0%
Erythrocytes ([2]; male rats, suppositories rectally, 500 mg/kg, 1 month, control 5.6 ± 0.1): 5.7 ± 0.1 mln/mm^3
Hemoglobin ([2]; male rats, suppositories rectally, 500 mg/kg, 1 month, control 10.5 ± 0.2): 10.6 ± 0.1 mmol/L
Leukocyte ([2]; male rats, suppositories rectally, 500 mg/kg, 1 month, control 17.4 ± 1.3): 17.1 ± 0.9 thousand/mm^3
Haematocrite ([2]; male rats, suppositories rectally, 500 mg/kg, 1 month, control 45.9 ± 1.7): 47.9 ± 1.8%
Average volume of erythrocytes ([2]; male rats, suppositories rectally, 500 mg/kg, 1 month, control 81.4 ± 1.7): 82.3 ± 1.5 Mkm^3
Coagulation, time ([2]; male rats, suppositories rectally, 500 mg/kg, 1 month, control 152 ± 10.2): 157 ± 14 s
REE ([2]; male rats, suppositories rectally, 500 mg/kg, 2 months, control 1.4 ± 0.2): 2.0 ± 0.1 mm/h
Stab neutrophil ([2]; male rats, suppositories rectally, 500 mg/kg, 2 months, control 2.4 ± 0.4): 1.1 ± 0.6%
Reticulocytes ([2]; male rats, suppositories rectally, 500 mg/kg, 2 months, control 2.9 ± 0.2): 3.4 ± 0.2%
Eosinophiles ([2]; male rats, suppositories rectally, 500 mg/kg, 2 months, control 4.4 + 1.2): 4.1 ± 1.3%
Erythrocytes ([2]; male rats, suppositories rectally, 500 mg/kg, 2 months, control 6.1 ± 0.1): 6.5 ± 0.2 mln/mm^3
Hemoglobin ([2]; male rats, suppositories rectally, 500 mg/kg, 2 months, control 11.4 ± 0.2): 12.1 ± 0.4 mmol/L
Leukocyte ([2]; male rats, suppositories rectally, 500 mg/kg, 2 months, control 19.1 ± 1.9): 18.7 ± 1.7 thousand/mm^3
Haematocrite ([2]; male rats, suppositories rectally, 500 mg/kg, 2 months, control 45.9 ± 1.8): 52.5 ± 1.7%
Average volume of erythrocytes ([2]; male rats, suppositories rectally, 500 mg/kg, 2 months, control 74.6 + 1.9): 80.1 ± 1.0 Mkm^3
Thrombocytes ([2]; male rats, suppositories rectally, 500 mg/kg, 2 months, control 593 ± 14): 639 ± 34
MA - drop of optical density (thrombocytes [3]; [6]): 42.9 ± 1.6 %
MA - drop of optical density (thrombocytes [3]; [7]): 41.9 ± 1.6 %
MA - drop of optical density (thrombocytes [3]; [8]): 45.9 ± 1.6%
MA - drop of optical density (thrombocytes [3]; [9]): 48.7 ± 2.1%
MA - drop of optical density (thrombocytes [3]; [10]): 43.5 ± 2.0 %
MA - drop of optical density (thrombocytes [3]; [11]): 42.0 ± 1.4 %
MA - drop of optical density (thrombocytes [3]; [12]): 41.6 ± 1.4 %
MA - drop of optical density (thrombocytes [3]; [13]): 58.4 ± 1.7%
MA - drop of optical density (thrombocytes [3]; [14]): 43.4 ± 1.8 %
MA - drop of optical density (thrombocytes [3]; [15]): 42.4 ± 0.7 %
MA - drop of optical density (thrombocytes [3]; [16]): 46.2 ± 2.0%
MA - drop of optical density (thrombocytes [3]; [17]): 47.3 ± 1.7%

Nc1ccnc2c(=O)n([C@@H]3O[C@H](CO)[C@@H](O)[C@H]3O)[nH]c(=O)c12 [Compound 2, 4-amino-7-(β-D-ribofuranosile)pyrido[2,3-d]-6H-pyridazine-5,8-dione]
MA - fall of optical density of plasma, % to the standard (thrombocytes [1]; 10^−3 M, control 60.8 ± 3.4): 51.4 ± 2.7 %
MA - fall of optical density of plasma, % to the standard (thrombocytes [1]; 10^−4 M, control 60.0 ± 2.1): 50.4 ± 1.7 %
MA - fall of optical density of plasma, % to the standard (thrombocytes [1]; 10^−5 M, control 52.5 ± 2.1): 48.2 ± 1.0 %
MA - drop of optical density, % (thrombocytes [1]; 10^−6 M, control 52.8 ± 1.8): 50.1 ± 2.0%
MA - drop of optical density, % (thrombocytes [1]; 10^−7 M, control 51.5 ± 2.1): 50.8 ± 2.2%
Average volume of erythrocytes ([2]; rat, in vivo, 50 mg/kg): 83.4 ± 1.4 Mkm^3
Basophiles ([2]; rat, in vivo, 50 mg/kg): 0%
Juveniles ([2]; rat, in vivo, 50 mg/kg): 0%
Reticulocytes ([2]; rat, in vivo, 50 mg/kg): 2.8 ± 0.2/2.8 ± 0.2%
Average volume of erythrocytes ([2]; rat, in vivo, 500 mg/kg): 85.2 ± 1.2 Mkm^3
Basophiles ([2]; rat, in vivo, 500 mg/kg): 0%
Juveniles ([2]; rat, in vivo, 500 mg/kg): 0%
MA - drop of optical density (thrombocytes [3]; [6]): 44.2 ± 2.0 %
MA - drop of optical density (thrombocytes [3]; [7]): 42.2 ± 1.6 %
MA - drop of optical density (thrombocytes [3]; [8]): 46.9 ± 1.7 %
MA - drop of optical density (thrombocytes [3]; [9]): 49.2 ± 2.0%
MA - drop of optical density (thrombocytes [3]; [10]): 45.3 ± 2.0 %
MA - drop of optical density (thrombocytes [3]; [11]): 43.7 ± 1.7 %
MA - drop of optical density (thrombocytes [3]; [12]): 40.1 ± 2.2 %
MA - drop of optical density (thrombocytes [3]; [13]): 59.7 ± 2.2%
MA - drop of optical density (thrombocytes [3]; [14]): 45.2 ± 1.2 %
MA - drop of optical density (thrombocytes [3]; [15]): 43.6 ± 2.0 %
MA - drop of optical density (thrombocytes [3]; [16]): 47.8 ± 1.5%
MA - drop of optical density (thrombocytes [3]; [17]): 48.0 ± 1.2%
